The text below walks through data of patent publication US5036054A, “Renin inhibitors containing alpha-heteroatom amino acids” (Warner-Lambert Company, priority 1988, dated 1991).

This test deals with T1, renin (Homo sapiens, UniProt P00797).
T1 sequence (P00797 67-406): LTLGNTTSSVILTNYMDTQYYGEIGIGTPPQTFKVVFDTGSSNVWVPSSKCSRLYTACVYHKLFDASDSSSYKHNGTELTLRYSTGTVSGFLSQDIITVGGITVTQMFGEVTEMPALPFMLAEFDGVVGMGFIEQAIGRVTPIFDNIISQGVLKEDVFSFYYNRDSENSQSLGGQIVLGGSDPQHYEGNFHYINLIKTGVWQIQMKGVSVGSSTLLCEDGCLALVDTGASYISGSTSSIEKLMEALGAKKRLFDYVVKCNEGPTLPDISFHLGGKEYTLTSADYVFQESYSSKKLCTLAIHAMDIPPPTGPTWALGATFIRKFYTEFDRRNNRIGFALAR
Description: in vitro renin inhibitory activity, radioimmunoassay for angiotensin I. To be noted: 10^-6 molar test compound; renin incubated 2 hours at 37° with substrate angiotensinogen; angiotensin I by radioimmunoassay. The class given is biochemical. The protocol: The effectiveness of the aforementioned compounds is determined by a test for in vitro renin inhibitory activity. This activity is determined by a standard radioimmunoassay for angiotensin I. In this assay the enzyme, renin, incubated for 2 hours at 37° in the presense of a substrate, angiotensinogen, generates the product, angiotensin I. Test compounds are added to the incubation mixture. Relative activity is reported as the percent inhibition at 10^-6 molar concentration.
Regarding “DNMA-NHCH(OC2 H5)CO-STA-NHCH2 CH(CH3)CH2 CH3 [DNMANHCH(OC2 H5)COSTANHCH2 CH(CH3)CH2 CH3 (slow isomer)]”, the “Activity % Inhibition @ 10^-6 M” value is recorded as 15%.

Take “DNMA-NHCH(NH2)CO-STA-NHCH2 CH(CH3)CH2 CH3 [DNMANHCH(NH2)COSTANHCH2 CH(CH3)CH2 CH3 (slow isomer)]”: the “Activity % Inhibition @ 10^-6 M” value is 54%.

For the molecule `CCC(C)CNC(=O)CC(O)C(CC(C)C)NC(=O)C(NC(=O)C(Cc1cccc2ccccc12)Cc1cccc2ccccc12)[S+](C)[O-]` (centres unmarked) [DNMANHCH(SOCH3)COSTANHCH2 CH(CH3)CH2 CH3, DNMA-NHCH(SOCH3)CO-STA-NHCH2 CH(CH3)CH2 CH3], the “Activity % Inhibition @ 10^-6 M” value is given as 35%.

Consider `CCOC(=O)NC(NC(=O)C(Cc1cccc2ccccc12)Cc1cccc2ccccc12)C(=O)NC(CC(C)C)C(O)CC(=O)NCC(C)CC` (centres unmarked) [DNMA-NHCH(NHCO2 Et)CO-STA-NHCH2 CH(CH3)CH2 CH3], for which the “Activity % Inhibition @ 10^-6 M” value stood at 40%.

As for “DNMA-NHCH(NHC2 H5)CO-STA-NHCH2 CH(CH3) CH2 CH3 [DNMANHCH(NHC2 H5)COSTANHCH2 CH(CH3)CH2 CH3 (slow isomer)]”, the “Activity % Inhibition @ 10^-6 M” value is on record as 71%.

Take `CCC(C)CNC(=O)C[C@H](O)[C@H](CC(C)C)NC(=O)C(NC(=O)C(Cc1cccc2ccccc12)Cc1cccc2ccccc12)OC` (some centres unmarked) [DNMANHCH(OCH3)COSTANHCH2 CH(CH3)CH2 CH3, DNMA-NHCH(OCH3)CO-STA-NHCH2 CH(CH3)CH2 CH3]: the “Activity % Inhibition @ 10^-6 M” value was found to be 90%.

Regarding “DNMA-NHCH(NH(CH2)3 NHCSNHCH3)CO-STA-NHCH2 CH(CH3)CH2 CH3”, the “Activity % Inhibition @ 10^-6 M” value was found to be 36%.

`CCC(C)CNC(=O)CC(O)C(CC(C)C)NC(=O)C(NC(=O)C(Cc1cccc2ccccc12)Cc1cccc2ccccc12)SC(C)C` (single isomer, unassigned) [DNMANHCH(SCH(CH3)2)COSTANHCH2 CH(CH3)CH2 CH3 (slow isomer), DNMA-NHCH(SCH(CH3)2)CO-STA-NHCH2 CH(CH3)CH2 CH3]: the “Activity % Inhibition @ 10^-6 M” value was determined as 26%.

With “DNMA-NHCH(NHCH(CH3)2)CO-STA-NHCH2 CH(CH3)CH2 CH3 [DNMA-NHCH(NHCH(CH3)2)COSTANHCH2 CH(CH3)CH2 CH3 (slow isomer)]”, the “Activity % Inhibition @ 10^-6 M” value is on record as 60%.

On to `CCC(C)CNC(=O)CC(O)C(CC(C)C)NC(=O)C(NC(=O)C(Cc1cccc2ccccc12)Cc1cccc2ccccc12)SC(C)C` (single isomer, unassigned) [DNMANHCH(SCH(CH3)2)COSTANHCH2 CH(CH3)CH2 CH3 (fast isomer), DNMA-NHCH(SCH(CH3)2)CO-STA-NHCH2 CH(CH3)CH2 CH3], for which the “Activity % Inhibition @ 10^-6 M” value is given as 87%.

Take `CCC(C)CNC(=O)CC(O)C(CC(C)C)NC(=O)C(NC(=O)C(Cc1cccc2ccccc12)Cc1cccc2ccccc12)N(C)C` (single isomer, unassigned) [DNMANHCH(N(CH3)2)COSTANHCH2 CH(CH3)CH2 CH3 (slow isomer), DNMA-NHCH(N(CH3)2 CO-STA-NHCH2 CH(CH3)CH2 CH3]: the “Activity % Inhibition @ 10^-6 M” value worked out at 55%.

Turning to `CCC(C)CNC(=O)CC(O)C(CC(C)C)NC(=O)C(NC(C)=O)NC(=O)C(Cc1cccc2ccccc12)Cc1cccc2ccccc12` (centres unmarked) [DNMA-NHCH(NHCOCH3)CO-STA-NHCH2 CH(CH3)CH2 CH3], the “Activity % Inhibition @ 10^-6 M” value is 39%.

Take `CCC(C)CNC(=O)CC(O)C(CC(C)C)NC(=O)C(NC(=O)C(Cc1cccc2ccccc12)Cc1cccc2ccccc12)SC` (centres unmarked) [DNMANHCH(SCH3)COSTANHCH2 CH(CH3)CH2 CH3, DNMA-NHCH(SCH3)CO-STA-NHCH2 CH(CH3)CH2 CH3]: the “Activity % Inhibition @ 10^-6 M” value came out at 86%.

As for `CCC(C)CNC(=O)CC(O)C(CC(C)C)NC(=O)C(NC(=O)C(Cc1cccc2ccccc12)Cc1cccc2ccccc12)Sc1ccccc1` (centres unmarked) [DNMANHCH(SPh)COSTANHCH2 CH(CH3)CH2 CH3, DNMA-NHCH(SPh)CO-STA-NHCH2 CH(CH3) CH2 CH3], the “Activity % Inhibition @ 10^-6 M” value worked out at 40%.

As to `CCOC(NC(=O)C(Cc1cccc2ccccc12)Cc1cccc2ccccc12)C(=O)N[C@@H](CC(C)C)[C@@H](O)CC(=O)NCC(C)CC` (single isomer, unassigned) [DNMANHCH(OC2 H5)COSTANHCH2 CH(CH3)CH2 CH3 (fast isomer), DNMA-NHCH(OC2 H5)CO-STA-NHCH2 CH(CH3)CH2 CH3], the “Activity % Inhibition @ 10^-6 M” value is reported as 100%.

In the case of `CCC(C)CNC(=O)CC(O)C(CC(C)C)NC(=O)C(N)NC(=O)C(Cc1cccc2ccccc12)Cc1cccc2ccccc12` (single isomer, unassigned) [DNMANHCH(NH2)COSTANHCH2 CH(CH3)CH2 CH3 (fast isomer), DNMA-NHCH(NH2)CO-STA-NHCH2 CH(CH3)CH2 CH3], the “Activity % Inhibition @ 10^-6 M” value is recorded as 9%.

On to `CCC(C)CNC(=O)CC(O)C(CC(C)C)NC(=O)C(NC(=O)C(Cc1cccc2ccccc12)Cc1cccc2ccccc12)Nc1ccccc1` (centres unmarked) [DNMANHCH(NHPh)COSTANHCH2 CH(CH3)CH2 CH3, DNMA-NHCH(NHPh)CO-STA-NHCH2 CH(CH3)CH2 CH3], for which the “Activity % Inhibition @ 10^-6 M” value was 56%.
